Results reported in paper PMC12522106 (Cancer Research Communications, 2025).

How the values were obtained:
143B sarcospheres [1] = test: Transient romidepsin treatment, recovery of metabolic activity; format: cell-based, human; conditions: followed to day 14
Procedure: (§1) Sarcosphere losses were minimized by removing the media stepwise (25 μL/step, 10 μL/second) and by centering the sarcospheres in the middle of each well by centrifugation (1,000 g for 6 minutes) before each media exchange cycle. After each assay of metabolic activity, resazurin was removed by three cycles of media exchange and the media were changed on days 10 and 12 by one cycle.

LM7 sarcospheres [2] = test: as above; format: cell-based, human; conditions: 10–100 nmol/L; followed to day 14
Procedure: as §1

[3] = tested on: subcutaneous xenograft models of osteosarcoma cell lines; conditions: cited from earlier work
[4] = tested on: sarcospheres from human patients with osteosarcoma; test: Resazurin metabolic activity of human patient-derived sarcospheres; format: cell-based; conditions: for ED50: 48 hours, metabolic activity
Excerpt: (§2) Osteosarcoma tissue was obtained during standard-of-care procedures (biopsies or resections) in human patients treated at Indiana University Health and Riley Children’s Hospital with Institutional Review Board approval (#1501467439). Tissue from canine patients with osteosarcoma was obtained from standard-of-care amputations at the Purdue University College of Veterinary Medicine and the Metropolitan Veterinary Hospital. Osteosarcoma diagnosis was confirmed by review of pathology reports. Demographic and clinical information for human and canine patients is in Table 1. Primary osteosarcoma cells were isolated by collagenase/mechanical dispersion using a modification of a previously described protocol ([35]). […] The tissue was rinsed with cold PBS (Cytiva, cat. #SH30028.02) and minced prior to incubation in 10 mL of culture media containing collagenase type II (750 units/mL with 13–18 units of clostripain/mL, Worthington, cat. #LS004176) for 3 hours at 37°C and 5% CO2. The media and tissue fragments were centrifuged at 200 g for 5 minutes. Pellets with a visible layer of red blood cells were then treated with 5 mL of ACK Lysing Buffer (Gibco, cat. #A10492-01) for 1 minute and then centrifuged at 200 g for 2 minutes. Pellets were resuspended in culture media, pipetted up and down 15 times to disperse tissue fragments, and centrifuged at 200 g for 5 minutes. Finally, any remaining tissue fragments were crushed with a 25-mL pipette and transferred with released cells and culture media to a 100-mm tissue culture dish and incubated at 37°C and 5% CO2. Media were changed every 3 days. When a confluence of ∼80% was reached, the cells were passaged to 150-mm dishes at 5,000 cells/cm^2. Aliquots of the patient-derived osteosarcoma cells were frozen in 10% DMSO (Sigma-Aldrich, D2650), 40% FBS (Cytiva, SH30071.03), and 50% culture media at second passage and stored in liquid nitrogen. The TT2-77 xenoline is a patient cell line that was isolated from a patient-derived xenograft (PDX) that was previously developed and characterized by the Pollok lab ([5]).
(§3) The number of patient-derived cells required to obtain sarcospheres with 400-μm diameters was determined for each patient and varied from 1,000 to 15,000 cells per sarcosphere.
(§4) Round-bottom 96-well plates were coated with 50 μL/well of 0.5% poly 2-hydroxyethyl methacrylate (Polysciences Inc., cat. #09689-25) in 100% ethanol and incubated at 37°C for 3 days before use to obtain a nonadherent surface. […] Highly metastatic osteosarcoma cells cultured in monolayers at 50% to 80% confluence were lifted with Accutase (Innovative Cell Technologies, Inc., cat. #NC9839010), resuspended in media, and diluted to the desired concentration.

143B sarcospheres [5] = test: Cell cycle analysis by flow cytometry (DAPI); format: cell-based, human; conditions: 10 nmol/L for 24 hours
Procedure: (§5) Sarcospheres were washed with PBS to remove any media and then resuspended in Accumax Cell Detachment Solution ([…] Technologies, #07921) for 15 to 30 minutes. Sarcospheres were manually dissociated by pipetting up and down at least 10 times. Following dissociation, cells were fixed in Cytofix/Cytoperm (BD Cytofix/Cytoperm Fixation/Permeabilization Solution Kit, BDB554714) for 10 to 20 minutes at 4°C protected from light. Fixation solution was removed with two washes in sterile PBS. Cells were resuspended in PBS and stored for no more than 72 hours at 4°C. Cells were transferred to flow cytometry tubes for staining. For DAPI staining, 1 mg/mL DAPI (BD Pharmingen, #564907) was diluted 1000-fold in sterile PBS and 500 μL was added to the appropriate tubes containing an equal volume of cell suspension. Flow cytometry was performed using a BD LSRFortessa X-20 flow cytometer using a 407 laser. Cell cycle analysis was performed using the Watson model in FlowJo software (version 10.10.0).

LM7 sarcospheres [6] = test: Cell cycle analysis by flow cytometry (DAPI); format: cell-based, human; conditions: 10 nmol/L for 24 hours
Procedure: as §5

[7] = tested on: human and canine patient-derived sarcospheres; test: Resazurin metabolic activity of patient-derived sarcospheres, human and canine summarised together; format: cell-based; conditions: 48 h, the other patient samples, read-out: ED50s of romidepsin-resistant patient samples
Excerpt: Osteosarcoma tissue was obtained during standard-of-care procedures (biopsies or resections) in human patients treated at Indiana University Health and Riley Children’s Hospital with Institutional Review Board approval (#1501467439). Tissue from canine patients with osteosarcoma was obtained from standard-of-care amputations at the Purdue University College of Veterinary Medicine and the Metropolitan Veterinary Hospital. Osteosarcoma diagnosis was confirmed by review of pathology reports. Demographic and clinical information for human and canine patients is in Table 1. Primary osteosarcoma cells were isolated by collagenase/mechanical dispersion using a modification of a previously described protocol ([35]). […] The tissue was rinsed with cold PBS (Cytiva, cat. #SH30028.02) and minced prior to incubation in 10 mL of culture media containing collagenase type II (750 units/mL with 13–18 units of clostripain/mL, Worthington, cat. #LS004176) for 3 hours at 37°C and 5% CO2. The media and tissue fragments were centrifuged at 200 g for 5 minutes. […]
The number of patient-derived cells required to obtain sarcospheres with 400-μm diameters was determined for each patient and varied from 1,000 to 15,000 cells per sarcosphere. […]

[8] = tested on: sarcospheres from canine patients with osteosarcoma; test: Resazurin metabolic activity of canine patient-derived sarcospheres; format: cell-based; conditions: for ED50: 48 hours, metabolic activity
Excerpt: as §2, §3, §4

LM7 sarcospheres [9] = test: Sarcosphere size (Incucyte); format: cell-based, human; conditions: 48-hour period
[10] = tested on: murine K7M2 osteosarcoma cells; parameters: method as in PMID 32599665; conditions: compared with LM7 model; cited from earlier work

Compound: C/C=C1\NC(=O)[C@H]2CSSCC/C=C/[C@H](CC(=O)N[C@H](C(C)C)C(=O)N2)OC(=O)[C@H](C(C)C)NC1=O [romidepsin]
- recovery of metabolic activity after a 24-hour exposure (143B sarcospheres [1]): rapidly recovered
- recovery of metabolic activity after a 24-hour exposure (LM7 sarcospheres [2]): sustained effect for 14 days
- tumor response ([3]; mice followed for 1 week after discontinuation): tumors regressed
- response after discontinuation ([3]; mice followed for 6 weeks after discontinuation): did not induce a sustained response
- growth of well-established subcutaneous xenografts ([3]; small number of mice): inhibited growth
- share of human patient samples whose sarcospheres responded ([4]; ED50s <70 nmol/L): ~30%
- ED50 ([4]; TT2-77 Xenoline (romidepsin sensitive)): 10 nmol/L
- ED50 of the notably more sensitive patient ([4]; one patient): 1 nM
- ED50 ([4]; patient sample IUhOS002LR (romidepsin resistant)): >1,000 nmol/L
- ED50 ([4]; patient sample IUhOS005B (romidepsin resistant)): >1,000 nmol/L
- ED50 ([4]; patient sample IUhOS006B (romidepsin sensitive)): 6 nmol/L
- ED50 ([4]; patient sample IUhOS013B (romidepsin resistant)): >1,000 nmol/L
- ED50 ([4]; patient sample IUhOS018B (romidepsin sensitive)): 1 nmol/L
- ED50 ([4]; patient sample IUhOS020LR (romidepsin sensitive)): 63 nmol/L
- ED50 ([4]; patient sample IUhOS021B (romidepsin resistant)): >1,000 nmol/L
- ED50 ([4]; patient sample IUhOS027P (romidepsin resistant)): >1,000 nmol/L
- ED50 ([4]; patient sample IUhOS029LR (romidepsin resistant)): >1,000 nmol/L
- ED50 ([4]; patient sample IUhOS0410B (romidepsin resistant)): >1,000 nmol/L
- ED50 ([4]; patient sample IUhOS0410P (romidepsin resistant)): >1,000 nmol/L
- ED50 ([4]; patient sample IUhOS1516B (romidepsin sensitive)): 10 nmol/L
- ED50 ([4]; patient sample IUhOS1516P (romidepsin resistant)): >1,000 nmol/L
- ED50 ([4]; patient sample IUhOS1925B (romidepsin resistant)): >1,000 nmol/L
- ED50 ([4]; patient sample IUhOS1925P (romidepsin resistant)): >1,000 nmol/L
- ED50 ([4]; patient sample IUhOS2226B (romidepsin resistant)): >1,000 nmol/L
- ED50 ([4]; patient sample IUhOS2226P (romidepsin resistant)): >1,000 nmol/L
- cell cycle block (143B sarcospheres [5]): induced a G2–M cell cycle block
- proportion of sub-G1 cells (143B sarcospheres [5]): without altering the proportion of sub-G1 cells
- cell cycle block (LM7 sarcospheres [6]): without inducing a cell cycle block
- proportion of sub-G1 cells (LM7 sarcospheres [6]): increased the proportion of sub-G1 cells
- EC50 [7]: > 1000 nM
- share of canine patient samples whose sarcospheres responded ([8]; ED50s <70 nmol/L): 50%
- ED50 ([8]; canine patient sample MVHcOS001 (romidepsin resistant)): >1,000 nmol/L
- ED50 ([8]; canine patient sample MVHcOS002 (romidepsin resistant)): >1,000 nmol/L
- ED50 ([8]; canine patient sample MVHcOS003 (romidepsin sensitive)): 22 nmol/L
- ED50 ([8]; canine patient sample MVHcOS004 (romidepsin sensitive)): 6 nmol/L
- ED50 ([8]; canine patient sample MVHcOS005 (romidepsin resistant)): >1,000 nmol/L
- ED50 ([8]; canine patient sample MVHcOS006 (romidepsin resistant)): >1,000 nmol/L
- ED50 ([8]; canine patient sample PUcOS001 (romidepsin sensitive)): 65 nmol/L
- ED50 ([8]; canine patient sample PUcOS002 (romidepsin sensitive)): 46 nmol/L
- ED50 ([8]; canine patient sample PUcOS003 (romidepsin resistant)): >1,000 nmol/L
- ED50 ([8]; canine patient sample PUcOS004 (romidepsin sensitive)): 57 nmol/L
- effect on sarcosphere size (LM7 sarcospheres [9]): did not alter size
- effect on lung metastases [10]: less effect
